Experiments:
Type in all cases: physicochemical
[1] = Maximum absorption wavelength of the dye in N-methylpyrrolidone (UV-2550 spectrophotometer); conditions: for λmax: in N-methylpyrrolidone solvent
Protocol: <Maximum Absorption Wavelength>
The maximum absorption wavelength of the dye in N-methylpyrrolidone solvent was measured with a UV-2550 spectrophotometer (made by Shimadzu Corp.).

[2] = Phase transition temperature by DSC thermal analysis and polarizing microscope observation
Protocol: <Phase Transition Temperature>
The phase transition temperature was determined by thermal analysis with a DSC measurement apparatus (made by Seiko Instruments) and by visual observation with a polarizing microscope.

[3] = Light resistance of light absorption anisotropic film (change in intensity of absorption)
Protocol: While being heated from room temperature to 200° C., each of the light absorption anisotropic films that had been prepared was irradiated with 10 mW of light and the light resistance was determined based on the change in the intensity of absorption.

[4] = Solubility in chloroform / preparation of chloroform coating liquid
Protocol: The solubility of these compounds in chloroform was measured.
Following stirring and dissolution, a liquid-crystal composition coating liquid was obtained. Each of the coating liquids was then coated on an alignment film that had been formed on a glass substrate and had been rubbed. Subsequently, the chloroform was allowed to dry naturally at room temperature, yielding individual light absorption anisotropic films. The polyvinylalcohol indicated below was employed as the alignment film.

[5] = light absorption anisotropic film irradiated with 10 mW of light while heated from room temperature to 200° C., change in intensity of absorption

| SMILES | λmax [1] [nm] | Light resistance [3, 5] | also measured |
| --- | --- | --- | --- |
| CCCCCCOc1ccc(N=Nc2ccc(C=Cc3cc(OC)c(C=Cc4ccc(N=Nc5ccc(OCCCCCC)cc5)cc4)cc3OC)cc2)cc1 [A-34] | 463.4 |  | temperature range in which nematic liquid crystallinity was confirmed [2]: ≥ 247 °C |
| CCCCCCOc1ccc(N=Nc2ccc(C=Cc3cc(OCCOCCOCCOC)c(C=Cc4ccc(N=Nc5ccc(OCCCCCC)cc5)cc4)cc3OC)cc2)cc1 [A-3] | 463.3 | Good |  |
| CCCCCCOc1ccc(/C=C/c2ccc(/C=C/c3cc(OCCOCCOCCOCCOCCOCCO)c(/C=C/c4ccc(/C=C/c5ccc(OCCCCCC)cc5)cc4)cc3OC)cc2)cc1 [Comparative Compound 2, reference compound] |  | Poor | original absorption wavelength [1]: 432.5 nm; solubility in chloroform (in words) [4]: good solubility; Light resistance ([3]; film heated from room temperature to 200° C., irradiated with 10 mW of light): poor light resistance |
| CCCCc1ccc(N=Nc2ccc(N=Nc3ccc(N=Nc4ccc(N=Nc5ccc(N=Nc6ccc(CCCC)cc6)cc5)cc4C)c(C)c3)cc2)cc1 [Comparative Compound 1] |  |  | temperature range in which nematic liquid crystallinity was confirmed [2]: ≥ 220 °C; preparation of coating liquid ([4]; 1 weight part compound in 99 weight parts of chloroform): precluding preparation of a coating liquid; solubility in chloroform (in words) [4]: almost no solubility |
| CCCCCCCCCCCCCCCCCCOc1cc(C=Cc2ccc(N=Nc3ccc(OCCCCCC)cc3)cc2)c(OC)cc1C=Cc1ccc(N=Nc2ccc(OCCCCCC)cc2)cc1 [A-9] | 460.0 | Good |  |
| CCCCCCOc1ccc(N=Nc2ccc(C=Cc3cc(OCCOCCOCCO)c(C=Cc4ccc(N=Nc5ccc(OCCCCCC)cc5)cc4)cc3OC)cc2)cc1 [A-4] | 463.8 | Good |  |
| CCCCCCOc1ccc(N=Nc2ccc(C=Cc3cc(OCCOCCOCCOC)c(C=Cc4ccc(N=Nc5ccc(OCCCCCC)cc5)cc4)cc3OCCOCCOCCOC)cc2)cc1 [A-10] | 457.5 | Good |  |

— US9011988B2, “Liquid-crystal compound, liquid-crystal composition, light absorption anisotropic film, and liquid-crystal display device” (Fujifilm Corporation, priority 2010, dated 2015)
